Numbers after ± are expanded uncertainties.
Assays:
[1] = refractive index (Na D-line) (dimensionless); settings: 100 kPa, Liquid, Standard Abbe refractometry
[2] = Liquid; for speed of sound: 100 kPa, Frequency=3 MHz, Sing-around technique in a fixed-path interferometer; for mass density: 101.3 kPa, Vibrating tube method
[3] = xn = mol fraction of the nth substance listed; settings: Liquid, x1 = 1; for speed of sound: 100 kPa, Frequency=3 MHz, Sing-around technique in a fixed-path interferometer; for mass density: 101.3 kPa, Vibrating tube method
[4] = refractive index (Na D-line) (dimensionless); xn = mol fraction of the nth substance listed; settings: 100 kPa, Liquid, Standard Abbe refractometry, x1 = 1

SMILES | refractive index ([1]; 298.15 K) | refractive index ([1]; 308.15 K) | refractive index ([1]; 318.15 K) | refractive index ([1]; 328.15 K) | speed of sound ([2]; 298.15 K) [m/s] | mass density ([2]; 298.15 K) [kg/m3] | speed of sound ([2]; 308.15 K) [m/s] | mass density ([2]; 308.15 K) [kg/m3] | speed of sound ([2]; 318.15 K) [m/s] | mass density ([2]; 318.15 K) [kg/m3] | speed of sound ([2]; 328.15 K) [m/s] | mass density ([2]; 328.15 K) [kg/m3] | also measured
CCOS(=O)(=O)[O-].CCn1cc[n+](C)c1 [1-ethyl-3-methylimidazolium ethyl sulfate] | 1.47907 ± 0.002 | 1.47645 ± 0.002 | 1.47374 ± 0.002 | 1.47112 ± 0.002 | 1680.8 ± 1.6 | 1236.38 ± 2 | 1656.4 ± 1.6 | 1229.49 ± 2 | 1632.4 ± 1.6 | 1222.78 ± 2 | 1608.9 ± 1.6 | 1216.16 ± 2 | 
CCOS(=O)(=O)[O-].CCn1cc[n+](C)c1 [1-ethyl-3-methylimidazolium ethyl sulfate] + CCCOCCO |  |  |  |  |  |  |  |  |  |  |  |  | speed of sound ([3]; 298.15 K): 1680.8 ± 1.6 m/s; mass density ([3]; 298.15 K): 1236.38 ± 2 kg/m3; speed of sound ([3]; 308.15 K): 1656.4 ± 1.6 m/s; mass density ([3]; 308.15 K): 1229.49 ± 2 kg/m3; speed of sound ([3]; 318.15 K): 1632.4 ± 1.6 m/s; mass density ([3]; 318.15 K): 1222.78 ± 2 kg/m3; speed of sound ([3]; 328.15 K): 1608.9 ± 1.6 m/s; mass density ([3]; 328.15 K): 1216.16 ± 2 kg/m3; refractive index ([4]; 298.15 K): 1.47907 ± 0.002; refractive index ([4]; 308.15 K): 1.47645 ± 0.002; refractive index ([4]; 318.15 K): 1.47374 ± 0.002; refractive index ([4]; 328.15 K): 1.47112 ± 0.002
CCCOCCO [2-propoxyethanol] | 1.41255 ± 0.002 | 1.40814 ± 0.002 | 1.40355 ± 0.002 | 1.39908 ± 0.002 | 1299.9 ± 1.5 | 908.31 ± 2 | 1265 ± 1.5 | 899.5 ± 2 | 1230.1 ± 1.5 | 890.56 ± 2 | 1195.8 ± 1.5 | 881.49 ± 2 | 

Reference: the NIST ThermoML archive (doi:10.1016/j.jct.2016.03.028)
